Experimental data taken from patent US20030207877A1, “Pyridoquinoxaline antivirals” (priority 2001, published 2003).
Several values for one entry are separate records, joined by “and”; a condition that tells them apart may be missing. Identical values can stand only once.

Experiments:
HCMV polymerase = biological target: T1, HCMV polymerase (Human cytomegalovirus, UniProt P08546); assay: HCMV polymerase assay (scintillation proximity assay), original and modified version; type: biochemical; conditions: SPA; several values per example = repeat determinations, assay version not given; read-out: CMV Polymerase IC50
T1 construct: made in house; host or cells: SF-9 insect cells infected with recombinant baculovirus
T1 sequence (P08546 whole entry): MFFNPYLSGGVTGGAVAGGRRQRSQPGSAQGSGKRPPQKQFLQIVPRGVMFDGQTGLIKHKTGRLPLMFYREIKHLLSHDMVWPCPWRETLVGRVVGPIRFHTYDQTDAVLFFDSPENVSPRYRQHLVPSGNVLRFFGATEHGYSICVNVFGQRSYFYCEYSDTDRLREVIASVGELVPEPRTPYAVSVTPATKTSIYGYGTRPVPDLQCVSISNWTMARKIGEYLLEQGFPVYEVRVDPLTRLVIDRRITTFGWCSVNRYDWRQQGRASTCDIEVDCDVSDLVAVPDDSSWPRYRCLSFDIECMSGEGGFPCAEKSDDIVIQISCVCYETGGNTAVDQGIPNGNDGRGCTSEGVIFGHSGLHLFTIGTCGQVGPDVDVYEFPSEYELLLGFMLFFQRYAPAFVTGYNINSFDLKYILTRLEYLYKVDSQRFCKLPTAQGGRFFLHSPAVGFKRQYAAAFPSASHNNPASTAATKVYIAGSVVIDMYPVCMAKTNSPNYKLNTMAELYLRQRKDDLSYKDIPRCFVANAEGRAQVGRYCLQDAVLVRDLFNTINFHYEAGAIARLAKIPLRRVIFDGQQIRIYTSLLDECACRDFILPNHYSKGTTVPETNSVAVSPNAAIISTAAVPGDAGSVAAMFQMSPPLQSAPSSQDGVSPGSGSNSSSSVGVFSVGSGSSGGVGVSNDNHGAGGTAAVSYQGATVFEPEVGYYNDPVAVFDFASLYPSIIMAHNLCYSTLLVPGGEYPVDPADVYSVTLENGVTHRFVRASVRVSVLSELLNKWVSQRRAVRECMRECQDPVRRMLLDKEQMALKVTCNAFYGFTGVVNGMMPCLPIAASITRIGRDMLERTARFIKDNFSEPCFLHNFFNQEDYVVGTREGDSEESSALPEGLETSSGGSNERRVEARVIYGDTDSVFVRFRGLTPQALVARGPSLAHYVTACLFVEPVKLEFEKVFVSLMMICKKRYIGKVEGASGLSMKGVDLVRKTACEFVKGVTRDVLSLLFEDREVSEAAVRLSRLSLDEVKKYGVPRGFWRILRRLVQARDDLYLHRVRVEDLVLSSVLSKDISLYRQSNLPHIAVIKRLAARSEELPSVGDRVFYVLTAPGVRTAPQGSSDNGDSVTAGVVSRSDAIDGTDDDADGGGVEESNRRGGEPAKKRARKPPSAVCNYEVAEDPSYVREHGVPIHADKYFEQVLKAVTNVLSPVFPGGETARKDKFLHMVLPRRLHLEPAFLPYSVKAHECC
Method: The HCMV polymerase assay is performed using a scintillation proximity assay (SPA) as described in several references, such as N.D. Cook, et al., Pharmaceutical Manufacturing International, pages 49-53 (1992); K. Takeuchi, Laboratory Practice, September issue (1992); U.S. Pat. No. 4,568,649 (1986); which are incorporated by reference herein. Reactions are performed in 96-well plates. The assay is conducted in 100 μl volume with 5.4 mM HEPES (pH 7.5), 11.7 MM KCl, 4.5 mM MgCl2, 0.36 mg/ml BSA, and 90 nM ^3H-dTTP. Assays are run with and without CHAPS, (3-[(3-Cholamidopropyl)-dimethylammoniol-1-propane-sulfonate) at a final concentration of 2 mM. HCMV polymerase is diluted in enzyme dilution buffer containing 50% glycerol, 250 mM NaCl, 10 mM HEPES (pH 7.5), 100 μg/ml BSA, and 0.01% sodium azide. The HCMV polymerase, which is expressed in recombinant baculovirus-infected SF-9 cells and purified according to literature procedures, is added at 10% (or 10 μl) of the final reaction volume, i.e., 100 μl. Compounds are diluted in 50% DMSO and 10 μl are added to each well. Control wells contain an equivalent concentration of DMSO. Unless noted otherwise, reactions are initiated via the addition of 6 nM biotinylated poly(dA)-oligo(dT) template/primer to reaction mixtures containing the enzyme, substrate, and compounds of interest. Plates are incubated in a 25° C. or 37° C. H2O bath and terminated via the addition of 40 μl/reaction of 0.5 M EDTA (pH 8) per well. Reactions are terminated within the time-frame during which substrate incorporation is linear and varied depending upon the enzyme and conditions used, i.e., 30 min. for HCMV polymerase. Ten (10) μl of streptavidin-SPA beads (20 mg/ml in PBS/10% glycerol) are added following termination of the reaction. Plates are incubated 10 min. at 37° C., then equilibrated to room temperature, and counted on a Packard Topcount. Linear regressions are performed and IC50's are calculated using computer software.
A modified version of the above HCMV polymerase assay is performed as described above, but with the following changes: Compounds are diluted in 100% DMSO until final dilution into assay buffer. In the previous assay, compounds are diluted in 50% DMSO. 4.5 mM dithiotherotol (DTT) is added to the polymerase buffer.

Alpha Polymerase = biological target: T2, Alpha Polymerase (Homo sapiens, UniProt P09884); assay: Alpha polymerase inhibition (selectivity); type: biochemical
T2 sequence (P09884 1-1462): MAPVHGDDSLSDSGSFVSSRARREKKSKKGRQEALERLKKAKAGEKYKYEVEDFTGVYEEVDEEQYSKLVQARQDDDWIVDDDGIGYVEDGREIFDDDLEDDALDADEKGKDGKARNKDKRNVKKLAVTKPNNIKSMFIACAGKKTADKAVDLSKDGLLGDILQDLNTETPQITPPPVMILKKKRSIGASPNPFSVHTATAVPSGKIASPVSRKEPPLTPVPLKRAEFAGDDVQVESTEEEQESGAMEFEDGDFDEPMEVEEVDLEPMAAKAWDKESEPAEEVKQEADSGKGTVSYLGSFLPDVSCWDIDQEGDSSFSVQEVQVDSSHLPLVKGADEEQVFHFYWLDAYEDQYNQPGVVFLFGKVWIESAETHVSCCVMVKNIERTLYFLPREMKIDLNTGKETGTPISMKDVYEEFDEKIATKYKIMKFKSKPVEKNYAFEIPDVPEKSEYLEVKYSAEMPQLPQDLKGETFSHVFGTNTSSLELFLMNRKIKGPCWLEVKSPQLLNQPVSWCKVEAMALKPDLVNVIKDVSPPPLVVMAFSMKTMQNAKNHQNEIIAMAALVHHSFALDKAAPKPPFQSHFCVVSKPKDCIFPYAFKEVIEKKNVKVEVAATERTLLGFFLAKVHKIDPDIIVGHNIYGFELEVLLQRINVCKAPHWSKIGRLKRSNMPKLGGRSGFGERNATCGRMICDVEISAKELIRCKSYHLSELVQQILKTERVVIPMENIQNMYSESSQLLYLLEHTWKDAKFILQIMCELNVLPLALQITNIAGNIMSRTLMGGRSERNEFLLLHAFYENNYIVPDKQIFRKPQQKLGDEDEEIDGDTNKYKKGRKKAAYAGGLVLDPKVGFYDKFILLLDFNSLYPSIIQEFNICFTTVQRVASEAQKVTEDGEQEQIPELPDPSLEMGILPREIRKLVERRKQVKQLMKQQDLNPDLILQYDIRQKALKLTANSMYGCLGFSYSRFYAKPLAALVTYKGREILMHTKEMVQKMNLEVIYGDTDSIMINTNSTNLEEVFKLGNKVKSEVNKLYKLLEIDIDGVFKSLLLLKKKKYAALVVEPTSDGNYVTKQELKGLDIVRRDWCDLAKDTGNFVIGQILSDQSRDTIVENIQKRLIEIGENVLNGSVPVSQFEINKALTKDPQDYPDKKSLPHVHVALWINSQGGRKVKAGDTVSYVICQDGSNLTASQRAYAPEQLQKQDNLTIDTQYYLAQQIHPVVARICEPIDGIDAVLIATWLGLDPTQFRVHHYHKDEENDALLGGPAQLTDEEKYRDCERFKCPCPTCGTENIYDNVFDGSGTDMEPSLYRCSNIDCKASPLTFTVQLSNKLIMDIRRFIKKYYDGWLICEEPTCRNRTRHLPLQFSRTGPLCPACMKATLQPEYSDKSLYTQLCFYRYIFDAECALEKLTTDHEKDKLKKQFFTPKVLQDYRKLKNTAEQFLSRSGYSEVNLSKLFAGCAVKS

| Structure (SMILES) | IC50 (HCMV polymerase) | IC50 (Alpha Polymerase) | melting point |
| --- | --- | --- | --- |
| CN(Cc1cc2c3c(c1)c(=O)c(C(=O)NCc1ccc(Cl)cc1)cn3CC(=O)N2C)CC(O)c1ccc2ccccc2n1 (racemic) [Example 16, rac N-(4-chlorobenzyl)-9-{([2-hydroxy-2-quinolin-2-ylethyl](methyl)amino)methyl 1-1-methyl-2,7-dioxo-2,3-dihydro-1H,7H-pyrido[1,2,3-de]quinoxaline-6-carboxamide] | 48 nM and 36 nM | > 20000 nM | 173 to 177 °C |
| CN(Cc1cc2c3c(c1)c(=O)c(C(=O)NCc1ccc(Cl)cc1)cn3CC(=O)N2C)C[C@@H](O)c1cccnc1 [Example 13, N-(4-chlorobenzyl)-9-{[[(2S)-2-hydroxy-2-pyridin-3-ylethyl](methyl)amino]methyl}-1-methyl-2,7-dioxo-2,3-dihydro-1H,7H-pyrido[1,2,3-de]quinoxaline-6-carboxamide] | 150 nM and 76 nM | > 20000 nM | 131 to 135 °C |
| CN(Cc1cc2c3c(c1)c(=O)c(C(=O)NCc1ccc(Cl)cc1)cn3CC(=O)N2C)C[C@@H](O)c1cnccn1 [Example 21, N-(4-chlorobenzyl)-9-{[[(2R)-2-hydroxy-2-pyrazin-2-ylethyl](methyl)amino]methyl}-1-methyl-2,7-dioxo-2,3-dihydro-1H,7H-pyrido[1,2,3-de]quinoxaline-6-carboxamide] | 160 nM and 120 nM | > 10000 nM | 97 to 98 °C |
| Cc1ccc(C(O)CN(C)Cc2cc3c4c(c2)c(=O)c(C(=O)NCc2ccc(Cl)cc2)cn4CC(=O)N3C)o1 (racemic) [Example 6, rac N-(4-chlorobenzyl)-9-{([2-hydroxy-2-(5-methyl-2-furyl)ethyl](methyl)amino)methyl}-1-methyl-2,7-dioxo-2,3-dihydro-1H,7H-pyrido[1,2,3-de]quinoxaline-6-carboxamide] | 120 nM and 89 nM | > 20000 nM | 159 to 161 °C |
| CN(Cc1cc2c3c(c1)c(=O)c(C(=O)NCc1ccc(Cl)cc1)cn3CC(=O)N2C)CC(O)c1ccc(O)cc1 (racemic) [Example 2, rac N-(4-chlorobenzyl)-9-{([2-hydroxy-2-(4-hydroxyphenyl)ethyl](methyl)amino)methyl}-1-methyl-2,7-dioxo-2,3-dihydro-1H,7H-pyrido[1,2,3-de]quinoxaline-6-carboxamide] | 70 nM and 93 nM | > 5000 nM | 145 to 148 °C |
